This note sets out measurements from patent US10093611B2, “Benzocycloalkenes as antifungal agents” (Bayer Intellectual Property GmbH, priority 2010, dated 2018).

The structures appear in SMILES notation.

Assay [1] concerns Alternaria solani. Nature of the assay: In vivo preventive test on Alternaria solani (tomato). The conditions noted are these: 500 ppm of active ingredient, evaluated 7 days after inoculation. As to the method: EXAMPLE A: IN VIVO PREVENTIVE TEST ON ALTERNARIA SOLANI (TOMATO) Solvent: 49 parts by weight of N,N-dimethylformamide Emulsifier: 1 part by weight of Alkylarylpolyglycolether To produce a suitable preparation of active compound, 1 part by weight of active compound is mixed with the stated amounts of solvent and emulsifier, and the concentrate is diluted with water to the desired concentration. To test for preventive activity, young plants are sprayed with the preparation of active compound at the stated rate of application. One day after this treatment, the plants are inoculated with an aqueous spore suspension of Alternaria solani. The plants remain for one day in an incubation cabinet at approximately 22° C. and a relative atmospheric humidity of 100%. Then the plants are placed in an incubation cabinet at approximately 20° C. and a relative atmospheric humidity of 96%. The test is evaluated 7 days after the inoculation. 0% means an efficacy which corresponds to that of the control while an efficacy of 100% means that no disease is observed. Under these conditions, good (at least 80%) to total protection is observed at a dose of 500 ppm of active ingredient with the following compounds from table A: […]

Assay [2] concerns Fusarium nivale (var. majus). Nature of the assay: In vivo curative test on Fusarium nivale (var. majus) (wheat). The conditions noted are these: 500 ppm of active ingredient, evaluated 5 days after inoculation. On the procedure: EXAMPLE C: IN VIVO CURATIVE TEST ON FUSARIUM NIVALE (VAR. MAJUS) (WHEAT) Solvent: 49 parts by weight of N,N-dimethylacetamide Emulsifier: 1 part by weight of alkylaryl polyglycol ether To produce a suitable preparation of active compound, 1 part by weight of active compound or active compound combination is mixed with the stated amounts of solvent and emulsifier, and the concentrate is diluted with water to the desired concentration. To test for curative activity, young plants are slightly injured by using a sandblast and afterwards they are sprayed with a conidia suspension of Fusarium nivale (var. majus) and placed for 24 hours in a greenhouse under a translucent incubation cabinet at a temperature of approximately 10° C. and a relative atmospheric humidity of approximately 100% and are subsequently sprayed with the preparation of active compound at the stated rate of application. After the spray coating has been dried, the plants remain in the greenhouse under translucent incubation cloches at a temperature of approximately 10° C. and a relative atmospheric humidity of approximately 100%. The test is evaluated 5 days after the inoculation. 0% means an efficacy which corresponds to that of the untreated control, while an efficacy of 100% means that no disease is observed. Under these conditions, total protection is observed at a dose of 500 ppm of active ingredient with the following compounds from table C: […]

For assay [3], the system named is Leptosphaeria nodorum. Nature of the assay: In vivo preventive test on Leptosphaeria nodorum (wheat). Conditions: 500 ppm of active ingredient, evaluated 8 days after inoculation. On the procedure: EXAMPLE D: IN VIVO PREVENTIVE TEST ON LEPTOSPHAERIA NODORUM (WHEAT) Solvent: 49 parts by weight of N,N-dimethylacetamide Emulsifier: 1 part by weight of alkylaryl polyglycol ether To produce a suitable preparation of active compound, 1 part by weight of active compound or the compound combination is mixed with the stated amounts of solvent and emulsifier, and the concentrate is diluted with water to the desired concentration. To test for protective activity, young plants are sprayed with a preparation of active compound or active compound combination at the stated rate of application. After the spray coating has dried on, the plants are sprayed with a spore suspension of Leptosphaeria nodorum. The plants remain for 48 hours in an incubation cabinet at 20° C. and a relative atmospheric humidity of 100%. The plants are placed in a greenhouse at a temperature of approximately 22° C. and a relative atmospheric humidity of approximately 80%. The test is evaluated 8 days after the inoculation. 0% means an efficacy which corresponds to that of the control, while an efficacy of 100% means that no disease is observed. Under these conditions, good (at least 75%) to total protection is observed at a dose of 500 ppm of active ingredient with the following compounds from table D: Under the same conditions, excellent protection (greater than 94%) is observed at a dose of 500 ppm of active ingredient with compound 2, whereas poor protection (less than 30%) is observed with the isosteric analogue compound CMP1 claimed in WO-2009/016218 as in table D2.

Assay [4] deals with Puccinia triticina. Put plainly: In vivo preventive test on Puccinia triticina (wheat). Conditions: 500 ppm of active ingredient, evaluated 8 days after inoculation. On the procedure: EXAMPLE E: IN VIVO PREVENTIVE TEST ON PUCCINIA TRITICINA (WHEAT)
Solvent: 49 parts by weight of N,N-dimethylacetamide
Emulsifier: 1 part by weight of alkylaryl polyglycol ether
To produce a suitable preparation of active compound, 1 part by weight of active compound or active compound combination is mixed with the stated amounts of solvent and emulsifier, and the concentrate is diluted with water to the desired concentration.
To test for preventive activity, young plants are sprayed with the preparation of active compound or active compound combination at the stated rate of application.
After the spray coating has been dried, the plants are sprayed with a spore suspension of Puccinia triticina. The plants remain for 48 hours in an incubation cabinet at approximately 20° C. and a relative atmospheric humidity of approximately 100%.
The plants are placed in the greenhouse at a temperature of approximately 20° C. and a relative atmospheric humidity of approximately 80%.
The test is evaluated 8 days after the inoculation. 0% means an efficacy which corresponds to that of the untreated control, while an efficacy of 100% means that no disease is observed.
Under these conditions, high (at least 85%) to total protection is observed at a dose of 500 ppm of active ingredient with the following compounds from table E: […]

The subject of assay [5] is Pyrenophora teres. Nature of the assay: In vivo preventive test on Pyrenophora teres (barley). The conditions noted are these: 500 ppm of active ingredient, evaluated 7-9 days after inoculation. On the procedure:
EXAMPLE F: IN VIVO PREVENTIVE TEST ON PYRENOPHORA TERES (BARLEY) Solvent: 49 parts by weight of N,N-dimethylformamide Emulsifier: 1 part by weight of Alkylarylpolyglycolether To produce a suitable preparation of active compound, 1 part by weight of active compound is mixed with the stated amounts of solvent and emulsifier, and the concentrate is diluted with water to the desired concentration. To test for preventive activity, young plants are sprayed with the preparation of active compound at the stated rate of application. One day after this treatment, the plants are inoculated with an aqueous spore suspension of Pyrenophora teres. The plants remain for 48 hours in an incubation cabinet at 22° C. and a relative atmospheric humidity of 100%. Then the plants are placed in a greenhouse at a temperature of approximately 20° C. and a relative atmospheric humidity of approximately 80%. The test is evaluated 7-9 days after the inoculation. 0% means an efficacy which corresponds to that of the untreated control while an efficacy of 100% means that no disease is observed. Under these conditions, high (at least 90%) to total protection is observed at a dose of 500 ppm of active ingredient with the following compounds from table F: […]

For the compound `CC(C1Cc2ccccc2C1)N(C(=O)c1cn(C)nc1C(F)F)C1CC1` (stereo not drawn) [Example 13], the Efficacy in assay [1], in assay [2], in assay [3], in assay [4] and in assay [5] was 100% throughout.

`CCC(C1CCc2ccccc2C1)N(C(=O)c1c(C(F)F)nn(C)c1F)C1CC1` (stereo not drawn) [Example 17]: the Efficacy is 80% in assay [1]; 100% in assay [2]; 80% in assay [3]; 88% in assay [4]; 100% in assay [5].

As for `Cc1nn(C)c(F)c1C(=O)N(C1CC1)C(C)C1Cc2ccccc2C1` (stereo not drawn) [Example 11], the Efficacy in assay [1], in assay [2], in assay [3], in assay [4] and in assay [5] was 100% throughout.

Regarding `CC(C1Cc2ccccc2C1)N(C(=O)c1c(C(F)F)nn(C)c1F)C1CC1` (stereo not drawn) [Example 14, N-cyclopropyl-3-(difluoromethyl)-N-[1-(indan-2-yl)ethyl]-5-fluoro-1-methyl-1H-pyrazole-4-carboxamide], the Efficacy in assay [1] was 95%; in assay [2] it was 100%; in assay [3], 100%; in assay [4] it was 100%; in assay [5], 100%.

On to `CCc1nn(C)c(F)c1C(=O)N(C1CC1)C(C)C1Cc2ccccc2C1` (stereo not drawn) [Example 12], for which the Efficacy in assay [1], in assay [2], in assay [3], in assay [4] and in assay [5] was 100% in each case.

For `CC(C1CCc2ccccc2C1)N(C(=O)c1c(C(F)F)nn(C)c1F)C1CC1` (stereo not drawn) [Example 16], the Efficacy in assay [1] amounted to 95%; in assay [2], 100%; in assay [3], 86%; in assay [4] it was 100%; in assay [5], 100%.
